Experimental findings from ChEMBL document CHEMBL1201862, “PubChem BioAssay data set” (2004) are described below.

Some test systems named below: HOP-62; UACC-62; NCI-H23; NCI-H522; CCRF-CEM; SF-268; COLO 205; SK-MEL-5; U-251; NCI-H460; HCT-15; HL-60; IGROV-1; SW-620; OVCAR-4; Malme-3M; CAKI-1; RPMI-8226; OVCAR-3; HOP-92.
Common to all, as to experiment: DTP human tumour cell line panel, 48 h

Structures are written as SMILES.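 Where inhibition never reached the appropriate level, the endpoint shown equals the highest concentration tested. Otherwise, values were interpolated linearly from a five-concentration, 48-hour dose response in 96-well plates. Abbreviation: GI50, concentration required for 50% inhibition of growth.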 Active and inactive are the calls of the source. Cut-off read from the data, not from the text of the source: active = GI50 up to about 1.1 µM and inactive = higher. Bounds are passed on as bounds.

Usually GI50 stands for the concentration giving 50% growth inhibition. With `Cc1cc(C)nc(NS(=O)(=O)c2ccc(NC(=O)c3cccn4c(=O)c5ccccc5nc34)cc2)n1`, the GI50 in the experiment with HOP-62 was > 100 µM (inactive); in the experiment with UACC-62 it was 20.5 µM (inactive); in the experiment with NCI-H23, 35.3 µM (inactive); with NCI-H522, 21.5 µM (inactive); with CCRF-CEM, 27.5 µM (inactive); in the experiment with SF-268, 51.1 µM (inactive). The GI50 in the experiment on COLO 205 is 40.6 µM (inactive); in the experiment with SK-MEL-5 it was 37.9 µM (inactive); in the experiment on U-251 it was 37.4 µM (inactive); in the experiment on NCI-H460, 41.5 µM (inactive); with HCT-15 it was 31 µM; with HL-60 it was 21.5 µM (inactive). Moreover, the GI50 is > 100 µM (inactive) in the experiment with IGROV-1, 34.9 µM (inactive) with SW-620 and 27.9 µM (inactive) with OVCAR-4.

Take `COc1cc(/C=C/c2ccc(OC)c(OC)c2)oc(=O)c1`: the GI50 in the experiment on HOP-62 is 124 µM (inactive); with Malme-3M, > 250 µM (inactive); with CAKI-1 it was > 92.3 µM (inactive); in the experiment with UACC-62 it was 247 µM (inactive); with NCI-H23 it was 203 µM (inactive); in the experiment with NCI-H522 it was > 195 µM (inactive). The GI50 is > 194 µM (inactive) in the experiment with CCRF-CEM; > 250 µM (inactive) in the experiment with RPMI-8226; > 170 µM (inactive) with SF-268; > 250 µM (inactive) in the experiment with COLO 205; > 250 µM (inactive) in the experiment with SK-MEL-5; 199 µM (inactive) in the experiment with U-251. Further, the GI50 in the experiment on OVCAR-3 is > 250 µM (inactive); in the experiment on NCI-H460, > 230 µM (inactive); in the experiment with HCT-15, greater than 250 µM; in the experiment with HL-60, > 91.6 µM (inactive); with IGROV-1 it was > 220 µM (inactive); in the experiment with SW-620, > 250 µM (inactive). Moreover, the GI50 in the experiment on OVCAR-4 was > 250 µM (inactive); with HOP-92, 122 µM (inactive).

As for `CCCCN1CN2C(=O)C(C(=O)OCC)C(=O)c3sc4nc(SC)nc1c4c32` (stereo not given), the GI50 in the experiment on HOP-62 was 15.7 µM (inactive); in the experiment with Malme-3M, 15 µM (inactive); in the experiment on CAKI-1 it was 17.3 µM (inactive); in the experiment with UACC-62, 17.7 µM (inactive); in the experiment with NCI-H23 it was 18 µM (inactive); in the experiment with NCI-H522, 18.9 µM (inactive). Besides, the GI50 with CCRF-CEM is 34 µM (inactive); with RPMI-8226 it was 21.1 µM (inactive); in the experiment on SF-268, 19.9 µM (inactive); with COLO 205, 18.7 µM (inactive); in the experiment on SK-MEL-5, 12.3 µM (inactive); in the experiment on U-251, 18.2 µM (inactive). Besides, the GI50 in the experiment on OVCAR-3 was 19 µM (inactive); in the experiment on NCI-H460, 19.5 µM (inactive); with HCT-15 it was 20 µM; with HL-60 it was 46.6 µM (inactive); in the experiment with IGROV-1 it was 18.9 µM (inactive); in the experiment with SW-620, 18.4 µM (inactive). Further, the GI50 with OVCAR-4 was 18.8 µM (inactive); with HOP-92, 14.9 µM (inactive).

Turning to `CCOC(=O)C1=C(C)N2CCCOC2(C)C(C(=O)OC)C1c1cccc([N+](=O)[O-])c1` (stereo not given), the GI50 in the experiment on HOP-62 is 99.1 µM (inactive); in the experiment on CAKI-1, 64.9 µM (inactive); in the experiment with UACC-62, 45.6 µM (inactive); with NCI-H23, > 100 µM (inactive); with CCRF-CEM it was 76.6 µM (inactive); with RPMI-8226 it was 35 µM (inactive). The GI50 in the experiment with SF-268 is > 100 µM (inactive); in the experiment with COLO 205, > 100 µM (inactive); with SK-MEL-5 it was 39.6 µM (inactive); in the experiment on OVCAR-3 it was 42.9 µM (inactive); in the experiment with NCI-H460, 57.4 µM (inactive); in the experiment with HL-60, 32.1 µM (inactive). For the same molecule, the GI50 in the experiment on IGROV-1, with SW-620 and in the experiment with HOP-92 was > 100 µM (inactive) in each case.

As to `CCOC(=O)c1ccc(C)c(/N=N/N(C)C)c1`, the GI50 in the experiment on HOP-62, with Malme-3M, in the experiment with CAKI-1, in the experiment with UACC-62, with NCI-H23 and in the experiment with NCI-H522 was > 100 µM (inactive) in each case. In addition, the GI50 in the experiment on CCRF-CEM was > 100 µM (inactive); with RPMI-8226 it was > 100 µM (inactive); in the experiment with SF-268, 82.8 µM (inactive); with COLO 205, > 100 µM (inactive); in the experiment with SK-MEL-5 it was > 100 µM (inactive); with U-251 it was > 100 µM (inactive). In addition, the GI50 with OVCAR-3 is > 100 µM (inactive); in the experiment with NCI-H460 it was > 100 µM (inactive); with HCT-15, greater than 100 µM; in the experiment on HL-60, > 100 µM (inactive); in the experiment with IGROV-1, > 100 µM (inactive); in the experiment with SW-620, > 100 µM (inactive). Also, the GI50 in the experiment on OVCAR-4 and with HOP-92 was > 100 µM (inactive) throughout.

In the case of `COc1cccc(N2C(Cl)C(=O)C2c2c[nH]c3ccccc23)c1` (stereo not given), the GI50 with HOP-62 was > 100 µM (inactive); with Malme-3M, 80.9 µM (inactive); with UACC-62, > 100 µM (inactive); with NCI-H23, > 100 µM (inactive); in the experiment with NCI-H522 it was > 100 µM (inactive); with CCRF-CEM, > 100 µM (inactive). For the same molecule, the GI50 in the experiment on RPMI-8226, with SF-268, in the experiment on COLO 205, in the experiment on SK-MEL-5, in the experiment on U-251 and in the experiment on OVCAR-3 was > 100 µM (inactive) in each case. Further, the GI50 in the experiment with NCI-H460, in the experiment with HL-60, in the experiment on IGROV-1, in the experiment with SW-620, in the experiment on OVCAR-4 and in the experiment on HOP-92 was > 100 µM (inactive) throughout.

Consider `CC(C)NC(=O)OCc1c(CO)c2c(n1C)-c1ccccc1CC2`, for which the GI50 was > 58.3 µM (inactive) in the experiment on HOP-62; 23.9 µM (inactive) with Malme-3M; 15.8 µM (inactive) in the experiment on CAKI-1; 18.3 µM (inactive) in the experiment on UACC-62; 26.7 µM (inactive) in the experiment with NCI-H23; 16.7 µM (inactive) in the experiment with NCI-H522. Besides, the GI50 was 12.6 µM (inactive) in the experiment on CCRF-CEM; 17.7 µM (inactive) with RPMI-8226; 36.1 µM (inactive) in the experiment on SF-268; 21 µM (inactive) with COLO 205; 27.2 µM (inactive) in the experiment with SK-MEL-5; 27 µM (inactive) with U-251. Besides, the GI50 in the experiment on OVCAR-3 was 22.4 µM (inactive); with NCI-H460, 25.5 µM (inactive); in the experiment with HCT-15 it was 23.3 µM; with HL-60, 16.4 µM (inactive); with IGROV-1, 27.5 µM (inactive); in the experiment with SW-620, 20 µM (inactive). Moreover, the GI50 is 26.3 µM (inactive) with OVCAR-4 and 18.2 µM (inactive) in the experiment with HOP-92.

For `COc1ccc(CN/C=N/C(C#N)=C(\N)C#N)cc1OC`, the GI50 in the experiment on HOP-62, with Malme-3M, with CAKI-1, with UACC-62, with NCI-H23 and in the experiment with NCI-H522 was > 100 µM (inactive) each time. For the same molecule, the GI50 with CCRF-CEM, in the experiment with RPMI-8226, in the experiment on SF-268, with COLO 205, in the experiment with SK-MEL-5 and with U-251 was > 100 µM (inactive) throughout. Moreover, the GI50 in the experiment with OVCAR-3 was > 100 µM (inactive); with NCI-H460 it was > 100 µM (inactive); in the experiment with HCT-15, greater than 100 µM; in the experiment with HL-60 it was > 100 µM (inactive); in the experiment with IGROV-1 it was > 100 µM (inactive); in the experiment with SW-620, > 100 µM (inactive). Moreover, the GI50 in the experiment with OVCAR-4 is > 100 µM (inactive).

Turning to `Cc1ccc(S(=O)(=O)NC(=N)N(C)N=O)cc1`, the GI50 in the experiment on HOP-62 is > 100 µM (inactive); in the experiment with Malme-3M it was > 100 µM (inactive); with CAKI-1, > 100 µM (inactive); with UACC-62, 26.4 µM (inactive); in the experiment on NCI-H23, > 100 µM (inactive); with NCI-H522, > 100 µM (inactive). For the same molecule, the GI50 in the experiment on CCRF-CEM is > 100 µM (inactive); with RPMI-8226, > 100 µM (inactive); in the experiment on SF-268 it was > 100 µM (inactive); with COLO 205, 28.1 µM (inactive); in the experiment on U-251, > 100 µM (inactive); in the experiment with OVCAR-3 it was > 100 µM (inactive). In addition, the GI50 with NCI-H460 is 18.9 µM (inactive); in the experiment with HCT-15 it was greater than 100 µM; with HL-60, > 100 µM (inactive); in the experiment on IGROV-1, > 100 µM (inactive); in the experiment with SW-620 it was > 100 µM (inactive); in the experiment on OVCAR-4 it was > 100 µM (inactive). In addition, the GI50 with HOP-92 is 84.1 µM (inactive).

In the case of `Cc1ccc(C2COc3cc(O)c(O)cc3C2)cc1` (stereo not given), the GI50 was 97.9 µM (inactive) in the experiment with HOP-62; 18.7 µM (inactive) with Malme-3M; 15.9 µM (inactive) in the experiment on CAKI-1; 18.5 µM (inactive) in the experiment on UACC-62; 23.4 µM (inactive) in the experiment with NCI-H23; 4.06 µM (inactive) with NCI-H522. The GI50 is 1.82 µM (inactive) with CCRF-CEM; 7.11 µM (inactive) in the experiment with RPMI-8226; 13.2 µM (inactive) in the experiment on SF-268; 12.5 µM (inactive) with COLO 205; 18.9 µM (inactive) in the experiment with SK-MEL-5; 17.7 µM (inactive) in the experiment with U-251. Further, the GI50 in the experiment on OVCAR-3 is 13.8 µM (inactive); in the experiment on NCI-H460, 55.3 µM (inactive); in the experiment on HCT-15 it was 15 µM; with HL-60, 1.64 µM (inactive); in the experiment with IGROV-1 it was 14.6 µM (inactive); in the experiment on SW-620, 11.1 µM (inactive). Also, the GI50 was 20.4 µM (inactive) with OVCAR-4 and 14.4 µM (inactive) with HOP-92.

Consider `Cc1cccc2ns[s+]c12`, for which the GI50 is > 100 µM (inactive) in the experiment on HOP-62; > 100 µM (inactive) with Malme-3M; > 100 µM (inactive) with CAKI-1; 38.5 µM (inactive) with UACC-62; > 100 µM (inactive) in the experiment on NCI-H23; 33.3 µM (inactive) in the experiment with CCRF-CEM. Moreover, the GI50 was 99.5 µM (inactive) in the experiment on RPMI-8226; 82 µM (inactive) with SF-268; > 100 µM (inactive) with COLO 205; 89.7 µM (inactive) in the experiment on SK-MEL-5; 33.9 µM (inactive) in the experiment on U-251; > 100 µM (inactive) in the experiment on OVCAR-3. Besides, the GI50 with NCI-H460 was 23 µM (inactive); in the experiment with HCT-15, 19.4 µM; in the experiment on HL-60, 36.3 µM (inactive); in the experiment on IGROV-1, > 100 µM (inactive); in the experiment with SW-620 it was 17.4 µM (inactive); with OVCAR-4 it was > 100 µM (inactive). In addition, the GI50 in the experiment on HOP-92 is > 100 µM (inactive).
